We go through 6 molecules from paper PMC4790305, “An FDA-Drug Library Screen for Compounds with Bioactivities against Meticillin-Resistant Staphylococcus aureus (MRSA)” (Antibiotics, 2015).

Assay [1] has as its system MRSA USA 100 (ATCCBAA-1681). Kind of assay: Minimum inhibitory concentration (MIC) assay, MRSA USA 100. Type of assay: cell-based, meticillin-resistant Staphylococcus aureus. To be noted: Staphylococcus aureus, read-out: MRSA MICs USA 100. The text has this: (§1) The 1163 FDA-approved drugs were purchased as a library set from Selleckchem (catalog #L1300). For MIC assays, Ivacaftor, Mupirocin and Tigecycline were purchased from Santa Cruz Biotechnology (Dallas, TX, USA). All other test compounds were purchased from Sigma-Aldrich (St. Louis, MO, USA) and were used without further purification. MRSA strains USA 100 (ATCCBAA-1681), USA 300 (ATCC-BAA-1680), USA400 (ATCC-BAA-1707) and VISA (ATCC-700699) were purchased from ATCC (Manassas, VA, USA).
(§2) The MICs of antibiotics and peptides were determined using the microdilution method from the Clinical and Laboratory Standards Institute (CLSI) guidelines. Briefly, bacteria were grown fresh from frozen stock in MH2 agar at 37 °C. After an overnight incubation, five MRSA colonies were selected to grow in cation-adjusted MH2 broth (BD Biosciences catalog #212322) in a shaker incubator at 37 °C, 220 RPM. Cells were grown to an optical density (OD600) of 0.15–0.16 using a Microplate Spectrophotometer (Molecular Devices Spectra Max Plus), which corresponds to 1–2 × 10^8 CFU/mL. Test compounds were constituted into 4 mM DMSO stock solutions and then subjected to two-fold serial dilution in a 96-well plate with concentrations ranging from 100 to 0.2 μM in duplicates. The amount of 50 μL of microbial culture containing ~1–2 × 10^6 CFU/mL of microbes in the respective broths was introduced into each well containing 50 μL of compound. After an overnight incubation at 35 °C, OD600 measurements were conducted using the Microplate Spectrophotometer. The MIC was defined as the lowest drug concentration (μM) required to inhibit microbial growth.

Assay [2] has as its system MRSA USA 300 (ATCC-BAA-1680). Kind of assay: Minimum inhibitory concentration (MIC) assay, MRSA USA 300. Type of assay: cell-based, meticillin-resistant Staphylococcus aureus. To be noted: Staphylococcus aureus, read-out: MRSA MICs USA 300.
Source text: as §1, §2

Assay [3] concerns MRSA USA400 (ATCC-BAA-1707). Kind of assay: Minimum inhibitory concentration (MIC) assay, MRSA USA 400. It counts as cell-based, meticillin-resistant Staphylococcus aureus. To be noted: Staphylococcus aureus, read-out: MRSA MICs USA 400.
Source text: as §1, §2

Assay [4] deals with VISA (ATCC-700699). Kind of assay: Minimum inhibitory concentration (MIC) assay, VISA. Type of assay: cell-based, meticillin-resistant Staphylococcus aureus. As to conditions: Staphylococcus aureus, ATCC 700699 / MRSA / VISA, read-out: MRSA MICs VISA.
Source text: as §1, §2

In assay [5] the test system is Adult normal human epidermal keratinocytes (NHEK). Kind of assay: Human epidermal keratinocyte viability (GI50) assay. It counts as cell-based. As to conditions: 120 h, read-out: Keratinocyte GI50. As to the method: Adult normal human epidermal keratinocytes (NHEK) were purchased from Lonza (catalog #00192627, Basel, Switzerland) and cultured in keratinocyte growth medium (Lonza KGM-Gold Bullet Kit) containing growth supplements (Lonza Reagent Pack) at 5% CO2 (37 °C). The cell viability assay was performed using the CellTiter-Glo Luminescent Cell Viability Assay protocol from Promega (www.promega.com, Fitchburg, WI, USA). Briefly, NHEK were treated with test compounds in keratinocyte growth medium in 96-well plates (Thermo Scientific Nunclon Delta, Waltham, MA, USA). Treated cells were incubated for 5 days at 5% CO2 (37 °C). Promega CellTiter-Glo Reagent was added and plates were shaken on an orbital shaker for […]. Next, well contents (100 μL) from each well were transferred into opaque 96-well plates (PerkinElmer OptiPlate-96) and luminescence measured by a microplate reader (Tecan Safire2).

Assay [6] deals with panel of clinical MRSA strains (USA 100, USA 300, USA 400 and VISA). Kind of assay: MIC assay against panel of clinical MRSA strains. Type of assay: cell-based, meticillin-resistant Staphylococcus aureus. As to conditions: Staphylococcus aureus; across USA 100, USA 300, USA 400 and VISA.
Source text: as §1, §2

Assay [7] has as its system MRSA USA100. Kind of assay: Single-point 10 μM bacteria growth inhibition assay. It counts as cell-based, meticillin-resistant Staphylococcus aureus. As to conditions: MRSA USA 100.
Source text: as §1
MRSA USA100 was grown from frozen glycerol stock on Mueller Hinton 2 (MH2) agar overnight at 37 °C. Five colonies were selected from the agar plate and grown in cation-adjusted MH2 broth (BD Biosciences catalog #212322, Franklin Lakes, NJ, USA) in a shaker incubator at 37 °C, 220 RPM. Cells were grown to 1–2 × 10^8 CFU/mL and diluted 1:100 in MH2 broth. An amount of 50 μL of test compounds pre-dissolved in MH2 broth at 20 μM concentrations were added in duplicates into each well in a 96-well plate. A total of 50 μL of bacteria inoculums containing ~1 × 10^6 CFU/mL of bacteria in MH2 broth was introduced into each well containing the test compounds. The final DMSO concentration was kept at 2.5% in each well. After an overnight incubation at 35 °C, optical density (OD600) of each well was determined using the Microplate Spectrophotometer (Molecular Devices Spectra Max Plus, Sunnyvale, CA, USA).

In assay [8] the test system is MRSA USA300. Kind of assay: Bactericidal/static determination assay. Type of assay: cell-based, meticillin-resistant Staphylococcus aureus. As to conditions: MRSA USA300, 4× MIC; bactericidal when ≥99.9% cell death. Here is the method: After the MICs of test compounds were determined using the microdilution method described in Section 2.2, the entire well contents (100 μL) corresponding to 4× the MIC of the antibiotic or peptide were transferred and spread on fresh sterile MH2 agar plates. The plates were incubated overnight at 37 °C and the number of colony forming units (CFU) was determined the next day. A compound was classified as bactericidal when ≥99.9% cell death was observed.

The test system of assay [9] is MRSA USA300. Kind of assay: Time-kill assay. Type of assay: cell-based, meticillin-resistant Staphylococcus aureus. To be noted: MRSA USA300, 4× MIC, within 6 h. Here is the method: Bacteria cells were grown to 1 × 10^8 CFU/mL in MH2 broth and then diluted […] into 5 mL aliquots to a density of 1 × 10^6 CFU/mL in a flask. Test compounds pre-dissolved in DMSO corresponding to 4× their MICs were then added into each flask with a final DMSO concentration of 2.5% v/v. The negative control was 2.5% DMSO. The flasks were incubated in a shaking incubator (220 RPM) at 37 °C. Samples (100 μL) were taken hourly from the flasks between t = 0 and t = 6 h. The samples were serially diluted in MH2 broth before plating on sterile MH2 agar and incubated overnight at 37 °C. A bacteria count for each plate was conducted the next day. A graph of Log CFU/mL was plotted against time to obtain the time-kill graph.

The mark [10] stands for this setting: 5 days incubation, CellTiter-Glo.

Converted amounts (≈) assume the structure as drawn. Where two headings read alike, the source gives them in different places. Some results are limits rather than exact numbers.

For the molecule `CC(C)(C)c1cc(C(C)(C)C)c(NC(=O)c2c[nH]c3ccccc3c2=O)cc1O` [Ivacaftor], the MIC in assay [1] (microdilution, overnight 35 °C) came to 6.25 µM (≈ 2.45 µg/mL); in assay [2] (microdilution, overnight 35 °C), 6.25 µM (≈ 2.45 µg/mL); in assay [3] (microdilution, overnight 35 °C), 6.25 µM (≈ 2.45 µg/mL); in assay [4] (microdilution, overnight 35 °C), 6.25 µM (≈ 2.45 µg/mL); in assay [6] it was 6.25 µM (≈ 2.45 µg/mL). Moreover, in assay [5] (setting [10]), the concentration for 50% growth inhibition (GI50) is 5.9 ± 0.5 µM. Further, in assay [7], the “Antibacterial activity in single-point screen” value was “either bacteriostatic or bactericidal”.

Take `CC(=O)NC[C@H]1CN(c2ccc(N3CCOCC3)c(F)c2)C(=O)O1` [Linezolid]: the MIC was 6.25 µM (≈ 2.11 µg/mL) in [1] (microdilution, overnight 35 °C); 6.25 µM (≈ 2.11 µg/mL) in assay [2] (microdilution, overnight 35 °C); 6.25 µM (≈ 2.11 µg/mL) in [3] (microdilution, overnight 35 °C); 3.13 µM (≈ 1.06 µg/mL) in [4] (microdilution, overnight 35 °C). The 50% growth inhibitory concentration (GI50) in assay [5] (setting [10]) was more than 100 µM. The Bactericidal/static classification result in [8] is given as “bacteriostatic”. Moreover, the “log reduction in bacteria count” value in assay [9] is recorded as “less than a log reduction”.

For `C/C(=C\C(=O)OCCCCCCCCC(=O)O)C[C@@H]1OC[C@H](C[C@@H]2O[C@H]2[C@@H](C)[C@H](C)O)[C@@H](O)[C@H]1O` [Mupirocin], the MIC in assay [1] (microdilution, overnight 35 °C) is 0.78 µM (≈ 0.39 µg/mL); in assay [2] (microdilution, overnight 35 °C), 0.39 µM (≈ 0.195 µg/mL); in assay [3] (microdilution, overnight 35 °C), 0.39 µM (≈ 0.195 µg/mL); in assay [4] (microdilution, overnight 35 °C), more than 100 µM. Further, the GI50 in assay [5] (setting [10]) was more than 50 µM.

As for `OC1(c2ccc(Cl)c(C(F)(F)F)c2)CCN(CCCC(c2ccc(F)cc2)c2ccc(F)cc2)CC1` [Penfluridol], the MIC in assay [1] (microdilution, overnight 35 °C) was 3.13 µM (≈ 1.64 µg/mL); in assay [2] (microdilution, overnight 35 °C) it was 3.13 µM (≈ 1.64 µg/mL); in [3] (microdilution, overnight 35 °C), 3.13 µM (≈ 1.64 µg/mL); in [4] (microdilution, overnight 35 °C), 3.13 µM (≈ 1.64 µg/mL); in [6], 3.13 µM (≈ 1.64 µg/mL). Also, the GI50 in [5] (setting [10]) is 2.1 ± 0.6 µM. The “Antibacterial activity in single-point screen” value in assay [7] is listed as “either bacteriostatic or bactericidal”.

With `CN(C)c1cc(NC(=O)CNC(C)(C)C)c(O)c2c1C[C@H]1C[C@H]3[C@H](N(C)C)C(O)=C(C(N)=O)C(=O)[C@@]3(O)C(O)=C1C2=O` [Tigecycline], the MIC in [1] (microdilution, overnight 35 °C) amounted to 0.78 µM (≈ 0.457 µg/mL); in [2] (microdilution, overnight 35 °C) it was 0.78 µM (≈ 0.457 µg/mL); in assay [3] (microdilution, overnight 35 °C), 0.78 µM (≈ 0.457 µg/mL); in assay [4] (microdilution, overnight 35 °C), 1.56 µM (≈ 0.914 µg/mL). Moreover, in assay [5] (setting [10]), the GI50 stood at 20.6 ± 4.2 µM.

On to `CN[C@H](CC(C)C)C(=O)N[C@H]1C(=O)N[C@@H](CC(N)=O)C(=O)N[C@H]2C(=O)N[C@H]3C(=O)N[C@H](C(=O)N[C@H](C(=O)O)c4cc(O)cc(O)c4-c4cc3ccc4O)[C@H](O)c3ccc(c(Cl)c3)Oc3cc2cc(c3O[C@@H]2O[C@H](CO)[C@@H](O)[C@H](O)[C@H]2O[C@H]2C[C@](C)(N)[C@H](O)[C@H](C)O2)Oc2ccc(cc2Cl)[C@H]1O` [Vancomycin], for which the MIC turned out to be 0.78 µM (≈ 1.13 µg/mL) in assay [1], 0.78 µM (≈ 1.13 µg/mL) in assay [2], 0.78 µM (≈ 1.13 µg/mL) in assay [3] and 6.25 µM (≈ 9.06 µg/mL) in [4]. The GI50 in assay [5] was more than 100 µM.

The term GI50 denotes the concentration that inhibits growth by half.
